Measurements taken from patent US20110230477A1, “COMPOUNDS, PHARMACEUTICAL COMPOSITION AND METHODS FOR USE IN TREATING METABOLIC DISORDERS” (Euroscreen S.A., priority 2008, published 2011).
“Also recorded” adds a separate entry of the source.

Assays:
[1] = biological target: T1, human GPR43 receptor (hGPR43) (Homo sapiens, UniProt O15552); assay: GTPγS binding assay (SPA method); assay type: biochemical; conditions: membranes expressing hGPR43; assay performed in the presence of SCFA; read-out: EC50 (nM) in GTPγ35S assay
T1 construct: expressed in transfected cells
T1 sequence (O15552 1-330): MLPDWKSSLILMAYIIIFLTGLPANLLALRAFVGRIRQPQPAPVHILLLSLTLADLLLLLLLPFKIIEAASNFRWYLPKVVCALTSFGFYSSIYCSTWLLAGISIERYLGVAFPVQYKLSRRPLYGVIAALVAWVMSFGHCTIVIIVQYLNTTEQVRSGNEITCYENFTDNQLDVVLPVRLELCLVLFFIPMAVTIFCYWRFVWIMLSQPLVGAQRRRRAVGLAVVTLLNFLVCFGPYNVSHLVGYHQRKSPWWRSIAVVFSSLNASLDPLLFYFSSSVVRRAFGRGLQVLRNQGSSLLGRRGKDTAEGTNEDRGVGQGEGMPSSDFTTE
In short: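 Membranes (5 μg) from hGPR43-expressing cells were incubated 30 min at room temperature with [35S]GTPγS, compounds (30 μM to 1 nM) and WGA SPA beads. Buffer was 20 mM HEPES pH 7.4, 100 mM NaCl, 10 μg/ml saponin, 30 mM MgCl2 and 10 μM GDP, with SCFA present. Bound label was read by scintillation counting.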

[2] = tested on: adipocytes isolated from normal rats; assay: Lipolysis assay in isolated adipocytes (normal rats); assay type: cell-based; conditions: adipocytes isolated from normal rats (FIGS. 6 and 7)
Method: Isolated adipocytes were diluted to 5% in KRH-buffer and were pre-treated with compound of the invention (30 μM, 10 μM and 1 μM) for 30 min at 37° C./120 rpm. After the pre-treatment, Isoprenaline (1 μM) was added to the adipocytes followed by 30 min incubation at 37° C./150 rpm. The reactions were put on ice and the buffer was assayed spectrophotometrically for the production of […] from glycerol breakdown in reactions catalyzed by glycerol kinase and glycerol-3-phosphate dehydrogenase and/or Non Esterified Fatty Acid (NEFA). Each data point was investigated in triplicates in two independent experiments.

normal diet fed mice = assay: In vivo assay of anti-lipolytic activity in rodent model (plasma FFA); conditions: orally administered, 50mg/kg, 15 minutes following the dosing, vs vehicle (FIG. 8)
Method: Male C57BL/6N wild-type are housed one per cage in a room maintained on a 12 h light/dark cycle under constant temperature (22-25° C.) with ad libitum access to food and water. The anti-lipolytic effects of the compounds of the invention are studied in awake mice. Animals are fasted overnight before experimental use. On the day of the experiment, animals are put in metabolic cages and left undisturbed to acclimate to the environment for 1-2 h. blood samples are taken at indicated time points from the intraorbital retrobulbar plexus. A 1% sodium citrate saline solution is used to flush the lines. A pre-treatment blood sample is obtained from each animal to determine baseline values for free fatty acids (FFA) and triglycerides (TG). Compounds of the invention are given via oral gavage, sc injection, iv injection or ip injection for each different series of experiments. Blood samples are collected into pre-cooled tubes pre-coated with heparin (200 μl blood, Li-heparin, Sarstedt) for determination triglycerides and glycerol and in tri-potassium EDTA added sodium fluoride (200 μl blood, K3-EDTA, 1.6 mg/mL+1% NaF, Sarstedt) for determination of plasma free fatty acids. The tubes are placed on wet ice pending processing. Blood samples will be centrifuged at 4000×g, at 4° C., 15 min the resulting plasma will be transferred into non-coated tubes and stored at −80° C. until analyses. […]

NCI-H716 cells = assay: GLP-1 release from NCI-H716 cells; assay type: cell-based, Human; conditions: NCI-H716 cells (FIG. 9)
Method: Human intestinal cell line NCI-H716 has been described as cellular model to assess compounds mimicking nutrient-mediated effect such as glucagon-like peptide-1 (GLP-1) secretion.
NCl-H716 cells (ATCC, Manassas) are cultured in Dulbecco's modified eagle's medium (DMEM) containing 10% (v/v) bovine serum, 2 mM L-glutamine, 100 IU/ml penicillin and 100 μg/ml streptomycin in 75 ml flask. Cell adhesion and endocrine differentiation is initiated by growing cells in 96-well plate coated with matrigel in High Glucose DMEM containing 10% (v/v) bovine serum, 2 mM L-glutamine, 100 IU/ml penicillin and 100 μg/ml streptomycin for 2 days. On day 2, the medium is removed and cells are washed once with a pre-warmed wash buffer (Phosphate Buffered salt solution). The wash solution is removed and the SCFA or the compounds of the invention, or a combination of both, are added at the desired concentration in High Glucose DMEM containing 0.1% (v/v) bovine serum and incubated for 2 hours at 37° C. The supernatants are collected in a container. Using the cell-free supernatants, the GLP-1 amount is assessed using a GLP-1 specific ELISA assay kit according the manufacturer's recommendations (ALPCON).

Row | Compound | EC50 [1] [nM] | further results
1 | (3R)-4-((4-(2-chlorophenyl)thiazol-2-yl)(methyl)amino)-4-oxo-3-((tetrahydrofuran-2-yl)methyl)butanoic acid [Compound 155] | 94 | isoprenaline-induced lipolysis [2]: inhibit
2 | O=C(O)C[C@@H](CC1CCCC1)C(=O)N(c1nc(-c2ccccc2-c2ccc(N3CCCC3=O)nc2)cs1)C1CC1 [Compound 183, (R)-3-(cyclopentylmethyl)-4-(cyclopropyl(4-(2-(6-(2-oxopyrrolidin-1-yl)pyridin-3-yl)phenyl)thiazol-2-yl)amino)-4-oxobutanoic acid] | 57 | isoprenaline-induced lipolysis [2]: inhibit; in vivo FFA baseline (normal diet fed mice): inhibition; also recorded: inhibit
3 | COc1ccc(-c2ccccc2-c2csc(N(C)C(=O)[C@@H](CC(=O)O)CC3CCCC3)n2)cn1 [Compound 139, (R)-3-(cyclopentylmethyl)-4-((4-(2-(6-methoxypyridin-3-yl)phenyl)thiazol-2-yl)(methyl)amino)-4-oxobutanoic acid] | 38 | isoprenaline-induced lipolysis [2]: inhibit
4 | O=C(O)C[C@@H](CC1CCCC1)C(=O)N(CCO)c1nc(-c2cc(Cl)ccc2Cl)cs1 [Compound 172, (R)-3-(cyclopentylmethyl)-4-((4-(2,5-dichlorophenyl)thiazol-2-yl)(2-hydroxyethyl)amino)-4-oxobutanoic acid] | 355 | –
5 | CN(C(=O)[C@@H](CC(=O)O)Cc1ccccc1)c1nc(-c2ccccc2-c2ccc(Cl)nc2)cs1 [Compound 108, (R)-3-benzyl-4-((4-(2-(6-chloropyridin-3-yl)phenyl)thiazol-2-yl)(methyl)amino)-4-oxobutanoic acid] | 305 | –
6 | CN(C(=O)[C@@H](CC(=O)O)Cc1ccccc1)c1nc(-c2ccccc2-c2ccc(N3CCCC3=O)nc2)cs1 [Compound 150, (R)-3-benzyl-4-(methyl(4-(2-(6-(2-oxopyrrolidin-1-yl)pyridin-3-yl)phenyl)thiazol-2-yl)amino)-4-oxobutanoic acid] | 353 | –
7 | O=C(O)C[C@@H](Cc1ccccc1)C(=O)Nc1nc(-c2cccc(C(F)(F)F)c2)cs1 [Compound 13, (R)-3-benzyl-4-oxo-4-(4-(3-(trifluoromethyl)phenyl)thiazol-2-ylamino)butanoic acid] | 875 | –
8 | CN(C(=O)C(CC(=O)O)CC1CCCCC1)c1nc(-c2ccccc2Cl)cs1 (centres unmarked) [Compound 103, 4-((4-(2-chlorophenyl)thiazol-2-yl)(methyl)amino)-3-(cyclohexylmethyl)-4-oxobutanoic acid] | 137 | –
9 | CN(C(=O)[C@@H](CC(=O)O)Cc1ccccc1)c1nc(-c2ccccc2-c2ccc(OCc3ccccc3)nc2)cs1 [Compound 158, (R)-3-benzyl-4-((4-(2-(6-(benzyloxy)pyridin-3-yl)phenyl)thiazol-2-yl)(methyl)amino)-4-oxobutanoic acid] | 49 | –
10 | O=C(O)C[C@@H](Cc1ccccc1)C(=O)Nc1cc(-c2cccc(C(F)(F)F)c2)n[nH]1 [Compound 203, (R)-3-benzyl-4-oxo-4-((3-(3-(trifluoromethyl)phenyl)-1H-pyrazol-5-yl)amino)butanoic acid] | 1780 | –
11 | COc1ccc(CC(CC(=O)O)C(=O)N(C)c2nc(-c3ccccc3Cl)cs2)cc1 (centres unmarked) [Compound 99, 4-((4-(2-chlorophenyl)thiazol-2-yl)(methyl)amino)-3-(4-methoxybenzyl)-4-oxobutanoic acid] | 567 | –
12 | COc1ccc(-c2ccccc2-c2csc(N(C(=O)[C@@H](CC(=O)O)CC3CCCC3)C3CC3)n2)cn1 [Compound 169, (R)-3-(cyclopentylmethyl)-4-(cyclopropyl(4-(2-(6-methoxypyridin-3-yl)phenyl)thiazol-2-yl)amino)-4-oxobutanoic acid] | – | GLP-1 secretion (NCI-H716 cells): significantly increases; isoprenaline-induced lipolysis [2]: inhibit; in vivo FFA baseline (normal diet fed mice): inhibition; also recorded: inhibit
13 | COc1ncc(-c2ccc(Cl)cc2-c2csc(N(C)C(=O)[C@@H](CC(=O)O)Cc3ccccc3)n2)cc1Cl [Compound 222, (R)-3-benzyl-4-((4-(5-chloro-2-(5-chloro-6-methoxypyridin-3-yl)phenyl)thiazol-2-yl)(methyl)amino)-4-oxobutanoic acid] | 102 | –
14 | CN(C(=O)[C@H]1CC=CC[C@H]1C(=O)O)c1nc(-c2ccccc2Cl)cs1 (relative stereo) [Compound 100, cis-6-((4-(2-chlorophenyl)thiazol-2-yl)(methyl)carbamoyl)cyclohex-3-enecarboxylic acid] | 142 | –
15 | CN(C(=O)[C@@H](CC(=O)O)Cc1ccccc1)c1nc(-c2ccccc2Cl)c(F)s1 [Compound 60, (R)-3-benzyl-4-((4-(2-chlorophenyl)-5-fluorothiazol-2-yl)(methyl)amino)-4-oxobutanoic acid] | 95 | –
16 | Cc1nc(CC(CC(=O)O)C(=O)N(C)c2nc(-c3ccccc3Cl)cs2)cs1 (centres unmarked) [Compound 209, 4-((4-(2-chlorophenyl)thiazol-2-yl)(methyl)amino)-3-((2-methylthiazol-4-yl)methyl)-4-oxobutanoic acid] | 2470 | –
17 | CN(C(=O)[C@H]1CCCC[C@H]1C(=O)O)c1nc(-c2ccccc2Cl)cs1 (relative stereo) [Compound 101, cis-2-((4-(2-chlorophenyl)thiazol-2-yl)(methyl)carbamoyl)cyclohexanecarboxylic acid] | 67 | –
18 | O=C(O)C[C@@H](Cc1ccccc1)C(=O)Nc1nc(-c2ccccc2F)cs1 [Compound 4, (R)-3-benzyl-4-(4-(2-fluorophenyl)thiazol-2-ylamino)-4-oxobutanoic acid] | 759 | –
19 | CN(C(=O)[C@@H](CC(=O)O)Cc1ccccc1)c1nc(-c2ccccc2-c2ccc(C#N)cc2)cs1 [Compound 206, (R)-3-benzyl-4-((4-(4′-cyano-[1,1′-biphenyl]-2-yl)thiazol-2-yl)(methyl)amino)-4-oxobutanoic acid] | 2320 | –
20 | COc1ncc(-c2ccc(Cl)cc2-c2csc(N(C(=O)[C@@H](CC(=O)O)CC3CCCC3)C3CC3)n2)cc1F [Compound 224, (R)-4-((4-(5-chloro-2-(5-fluoro-6-methoxypyridin-3-yl)phenyl)thiazol-2-yl)(cyclopropyl)amino)-3-(cyclopentylmethyl)-4-oxobutanoic acid] | 27 | –
21 | COCCN(C(=O)[C@@H](CC(=O)O)Cc1ccccc1)c1nc(-c2ccccc2Cl)cs1 [Compound 199, (R)-3-benzyl-4-((4-(2-chlorophenyl)thiazol-2-yl)(2-methoxyethyl)amino)-4-oxobutanoic acid] | 1380 | –
22 | O=C(O)C[C@@H](Cc1cccc(F)c1)C(=O)Nc1nc(-c2ccccc2Cl)cs1 [Compound 93, (R)-4-(4-(2-chlorophenyl)thiazol-2-ylamino)-3-(3-fluorobenzyl)-4-oxobutanoic acid] | 493 | –
23 | O=C(O)C[C@@H](C(=O)Nc1nc(-c2ccccc2Cl)cs1)c1ccccc1 [Compound 92, (R)-4-(4-(2-chlorophenyl)thiazol-2-ylamino)-4-oxo-3-phenylbutanoic] | 249 | –
